Values after ≈ are worked out from the molar mass of the structure shown.
Tested on: Plasmodium
Assay: Antimalarial activity against Plasmodium
Type: functional
Conditions: not given

Structure (SMILES)	IC50
C/C(=N\NC(=S)Nc1ccc(I)cc1)c1nc2cc(Cl)ccc2[nH]1	0.003 µg/mL (≈ 0.00639 µM)
C/C(=N\NC(=S)NC(C)C)c1nc2cc(Cl)ccc2[nH]1	0.003 µg/mL (≈ 0.00968 µM)
C/C(=N\NC(=S)Nc1ccc(Cl)cc1Cl)c1nc2cc(Cl)ccc2[nH]1	0.003 µg/mL (≈ 0.00727 µM)
C/C(=N\NC(=S)NC(C)(C)C)c1nc2cc(Cl)ccc2[nH]1	0.003 µg/mL (≈ 0.00926 µM)
C/C(=N\NC(=S)NCc1ccccc1)c1nc2cc(Cl)ccc2[nH]1	0.003 µg/mL (≈ 0.00838 µM)
C/C(=N\NC(=S)Nc1ccccc1)c1nc2cc(Cl)ccc2[nH]1	0.003 µg/mL (≈ 0.00872 µM)
C/C(=N\NC(=S)NC(=O)c1ccccc1)c1nc2cc(Cl)ccc2[nH]1	0.003 µg/mL (≈ 0.00807 µM)
CCCCNC(=S)N/N=C(\C)c1nc2cc(Cl)ccc2[nH]1	0.003 µg/mL (≈ 0.00926 µM)
C/C(=N\NC(=S)Nc1ccc(F)cc1)c1nc2cc(Cl)ccc2[nH]1	0.003 µg/mL (≈ 0.00829 µM)
C/C(=N\NC(=S)NC1CCCCC1)c1nc2cc(Cl)ccc2[nH]1	0.003 µg/mL (≈ 0.00857 µM)
C/C(=N\NC(=S)Nc1ccc([N+](=O)[O-])cc1)c1nc2cc(Cl)ccc2[nH]1	0.003 µg/mL (≈ 0.00772 µM)
C/C(=N\NC(N)=S)c1nc2cc(Cl)ccc2[nH]1	0.003 µg/mL (≈ 0.0112 µM)
COc1ccccc1NC(=S)N/N=C(\C)c1nc2cc(Cl)ccc2[nH]1	0.003 µg/mL (≈ 0.00802 µM)
CCNC(=S)N/N=C(\C)c1nc2cc(Cl)ccc2[nH]1	0.003 µg/mL (≈ 0.0101 µM)
C/C(=N\NC(=S)Nc1ccc(C)cc1)c1nc2cc(Cl)ccc2[nH]1	0.003 µg/mL (≈ 0.00838 µM)
COc1cccc(NC(=S)N/N=C(\C)c2nc3cc(Cl)ccc3[nH]2)c1	0.003 µg/mL (≈ 0.00802 µM)
COc1ccc(NC(=S)N/N=C(\C)c2nc3cc(Cl)ccc3[nH]2)cc1	0.003 µg/mL (≈ 0.00802 µM)
C/C(=N\NC(=S)Nc1ccc(Cl)cc1)c1nc2cc(Cl)ccc2[nH]1	0.003 µg/mL (≈ 0.00793 µM)

Tested on: Hemozoin
Assay: Inhibition of beta-hematin formation at 5 to 100 mM incubated for 48 hrs
Conditions: dose 5-100 mM

Structure (SMILES)	inhibition
O=C(Nc1ccc(C(F)(F)F)cc1)c1ccc2[nH]c(-c3ccc([N+](=O)[O-])s3)nc2c1	< 98%
COc1ccc(NC(=O)c2ccc3[nH]c(-c4ccc([N+](=O)[O-])o4)nc3c2)c(OC)c1	< 98%
O=C(Nc1ccc(Br)cc1)c1ccc2[nH]c(-c3ccc([N+](=O)[O-])o3)nc2c1	< 98%
O=C(Nc1ccc(Br)cc1)c1ccc2[nH]c(-c3ccc([N+](=O)[O-])s3)nc2c1	< 98%
Cc1cc(C)cc(NC(=O)c2ccc3[nH]c(-c4ccc([N+](=O)[O-])s4)nc3c2)c1	< 98%
COc1cccc(NC(=O)c2ccc3[nH]c(-c4ccc([N+](=O)[O-])o4)nc3c2)c1	< 98%
COc1ccc(NC(=O)c2ccc3[nH]c(-c4ccc([N+](=O)[O-])s4)nc3c2)cc1Cl	< 98%
Cc1cc(C)cc(NC(=O)c2ccc3[nH]c(-c4ccc([N+](=O)[O-])o4)nc3c2)c1	< 98%
O=C(Nc1ccc(Cl)cc1)c1ccc2[nH]c(-c3ccc([N+](=O)[O-])o3)nc2c1	< 98%
COc1cccc(NC(=O)c2ccc3[nH]c(-c4ccc([N+](=O)[O-])s4)nc3c2)c1	< 98%
Cc1ccc(C)c(NC(=O)c2ccc3[nH]c(-c4ccc([N+](=O)[O-])o4)nc3c2)c1	< 98%
O=C(Nc1ccccc1Cl)c1ccc2[nH]c(-c3ccc([N+](=O)[O-])o3)nc2c1	< 98%
COc1ccc(NC(=O)c2ccc3[nH]c(-c4ccc([N+](=O)[O-])s4)nc3c2)c(OC)c1	< 98%
COc1cc(NC(=O)c2ccc3[nH]c(-c4ccc([N+](=O)[O-])s4)nc3c2)cc(OC)c1OC	< 98%
COc1ccc(NC(=O)c2ccc3[nH]c(-c4ccc([N+](=O)[O-])o4)nc3c2)cc1Cl	< 98%
Cc1ccccc1NC(=O)c1ccc2[nH]c(-c3ccc([N+](=O)[O-])o3)nc2c1	< 98%
O=C(Nc1ccc(C(F)(F)F)cc1)c1ccc2[nH]c(-c3ccc([N+](=O)[O-])o3)nc2c1	< 98%
O=C(Nc1ccccc1Cl)c1ccc2[nH]c(-c3ccc([N+](=O)[O-])s3)nc2c1	< 98%
Cc1ccc(NC(=O)c2ccc3[nH]c(-c4ccc([N+](=O)[O-])s4)nc3c2)cc1C	< 98%
Cc1ccc(C)c(NC(=O)c2ccc3[nH]c(-c4ccc([N+](=O)[O-])s4)nc3c2)c1	< 98%
O=C(Nc1ccc(Cl)cc1)c1ccc2[nH]c(-c3ccc([N+](=O)[O-])s3)nc2c1	< 98%
Cc1ccc(NC(=O)c2ccc3[nH]c(-c4ccc([N+](=O)[O-])o4)nc3c2)cc1C	< 98%
Cc1ccccc1NC(=O)c1ccc2[nH]c(-c3ccc([N+](=O)[O-])s3)nc2c1	< 98%
Cc1cccc(NC(=O)c2ccc3[nH]c(-c4ccc([N+](=O)[O-])o4)nc3c2)c1	< 98%
Cc1cccc(NC(=O)c2ccc3[nH]c(-c4ccc([N+](=O)[O-])s4)nc3c2)c1	< 98%
Cc1ccc(NC(=O)c2ccc3[nH]c(-c4ccc([N+](=O)[O-])s4)nc3c2)c(C)c1	< 98%
COc1cc(NC(=O)c2ccc3[nH]c(-c4ccc([N+](=O)[O-])o4)nc3c2)cc(OC)c1OC	< 98%

Tested on: Plasmodium falciparum
Assay: Antimalarial activity against chloroquine sensitive Plasmodium falciparum assessed as reduction in parasite growth incubated for 48 hrs
Type: functional, organism-based
Conditions: not given

Structure (SMILES)	IC50
Cc1nn(-c2ccccc2)c(-n2cncn2)c1C1=CC(c2ccc(F)cc2)=NC2Nc3ccccc3N12 (stereo unspecified)	0.03 µg/mL (≈ 0.0614 µM)
Cc1cn(-c2c(C3CC(c4ccc(F)cc4)=NO3)c(C)nn2-c2ccccc2)cn1 (stereo unspecified)	0.012 µg/mL (≈ 0.0299 µM)
Cc1nn(-c2ccccc2)c(-n2ccnc2)c1C1CC(c2ccccc2)=NO1 (stereo unspecified)	0.012 µg/mL (≈ 0.0325 µM)
Cc1cn(-c2c(C3CC(c4ccc(Br)cc4)=NN3)c(C)nn2-c2ccccc2)cn1 (stereo unspecified)	0.012 µg/mL (≈ 0.026 µM)
Cc1nn(-c2ccccc2)c(-n2ccnc2)c1C1CC(c2ccc(Br)cc2)=NO1 (stereo unspecified)	0.012 µg/mL (≈ 0.0268 µM)
Cc1nn(-c2ccccc2)c(-n2ccnc2)c1C1CC(c2ccc(F)cc2)=NO1 (stereo unspecified)	0.012 µg/mL (≈ 0.031 µM)
Cc1nn(-c2ccccc2)c(-n2cncn2)c1C1=CC(c2cccs2)=NC2Nc3ccccc3N12 (stereo unspecified)	0.03 µg/mL (≈ 0.0629 µM)
Cc1nn(-c2ccccc2)c(-n2cncn2)c1C1=CC(c2ccccc2)=NC2Nc3ccccc3N12 (stereo unspecified)	0.03 µg/mL (≈ 0.0638 µM)
Cc1nn(-c2ccccc2)c(-n2ccnc2)c1C1CC(c2ccc(-c3ccccc3)cc2)=NO1 (stereo unspecified)	0.012 µg/mL (≈ 0.0269 µM)
COc1ccc(C2=NC3Nc4ccccc4N3C(c3c(C)nn(-c4ccccc4)c3-n3cncn3)=C2)cc1 (stereo unspecified)	0.03 µg/mL (≈ 0.0599 µM)
COc1ccc(C2=NNC(c3c(C)nn(-c4ccccc4)c3-n3ccnc3)C2)cc1 (stereo unspecified)	0.012 µg/mL (≈ 0.0301 µM)
Cc1nn(-c2ccccc2)c(-n2ccnc2)c1C1=CC(c2ccc(O)cc2)=NC2Nc3ccccc3N12 (stereo unspecified)	0.03 µg/mL (≈ 0.0618 µM)
Cc1nn(-c2ccccc2)c(-n2ccnc2)c1C1CC(c2ccccc2)=NN1 (stereo unspecified)	0.012 µg/mL (≈ 0.0326 µM)
COc1ccc(C2=NNC(c3c(C)nn(-c4ccccc4)c3-n3cnc(C)c3)C2)cc1 (stereo unspecified)	0.012 µg/mL (≈ 0.0291 µM)
Cc1cn(-c2c(C3CC(c4ccccc4)=NO3)c(C)nn2-c2ccccc2)cn1 (stereo unspecified)	0.012 µg/mL (≈ 0.0313 µM)
Cc1nn(-c2ccccc2)c(-n2ccnc2)c1C1CC(c2ccc(-c3ccccc3)cc2)=NN1 (stereo unspecified)	0.012 µg/mL (≈ 0.027 µM)
Cc1nn(-c2ccccc2)c(-n2cncn2)c1C1=CC(c2ccc(O)cc2)=NC2Nc3ccccc3N12 (stereo unspecified)	0.03 µg/mL (≈ 0.0617 µM)
Cc1nn(-c2ccccc2)c(-n2ccnc2)c1C1=CC(c2cc[nH]c2)=NC2Nc3ccccc3N12 (stereo unspecified)	0.03 µg/mL (≈ 0.0654 µM)
COc1ccc(C2=NOC(c3c(C)nn(-c4ccccc4)c3-n3cnc(C)c3)C2)cc1 (stereo unspecified)	0.012 µg/mL (≈ 0.029 µM)
Cc1nn(-c2ccccc2)c(-n2ccnc2)c1C1CC(c2ccc(O)cc2)=NN1 (stereo unspecified)	0.012 µg/mL (≈ 0.0312 µM)
Cc1nn(-c2ccccc2)c(-n2cncn2)c1C1=CC(c2cc[nH]c2)=NC2Nc3ccccc3N12 (stereo unspecified)	0.03 µg/mL (≈ 0.0653 µM)
Cc1nn(-c2ccccc2)c(-n2ccnc2)c1C1CC(c2ccc(F)cc2)=NN1 (stereo unspecified)	0.012 µg/mL (≈ 0.0311 µM)
Cc1cn(-c2c(C3CC(c4ccc(-c5ccccc5)cc4)=NN3)c(C)nn2-c2ccccc2)cn1 (stereo unspecified)	0.012 µg/mL (≈ 0.0262 µM)
Cc1nn(-c2ccccc2)c(-n2ccnc2)c1C1=CC(c2ccc(F)cc2)=NC2Nc3ccccc3N12 (stereo unspecified)	0.03 µg/mL (≈ 0.0615 µM)
Cc1nn(-c2ccccc2)c(-n2ccnc2)c1C1=CC(c2cccs2)=NC2Nc3ccccc3N12 (stereo unspecified)	0.03 µg/mL (≈ 0.0631 µM)
Cc1cn(-c2c(C3CC(c4ccccc4)=NN3)c(C)nn2-c2ccccc2)cn1 (stereo unspecified)	0.012 µg/mL (≈ 0.0314 µM)
COc1ccc(C2=NOC(c3c(C)nn(-c4ccccc4)c3-n3ccnc3)C2)cc1 (stereo unspecified)	0.012 µg/mL (≈ 0.03 µM)
Cc1cn(-c2c(C3CC(c4ccc(O)cc4)=NN3)c(C)nn2-c2ccccc2)cn1 (stereo unspecified)	0.012 µg/mL (≈ 0.0301 µM)
Cc1cn(-c2c(C3CC(c4ccc(O)cc4)=NO3)c(C)nn2-c2ccccc2)cn1 (stereo unspecified)	0.012 µg/mL (≈ 0.03 µM)

Tested on: Plasmodium falciparum
Assay: Antiplasmodial activity against chloroquine sensitive Plasmodium falciparum FCR-3 infected in human erythrocytes incubated for 72 hrs by giemsa staining based assay
Type: functional, organism-based
Conditions: FCR-3, 72 h

Structure (SMILES)	EC50
CCn1c(=O)/c(=C2\Sc3ccccc3N2C)s/c1=C\c1cccc[n+]1C	4 nM
CN1/C(=c2\s/c(=C\c3cc[n+](C)cc3)n(Cc3ccccc3)c2=O)Sc2ccccc21	4 nM
CN1/C(=c2\s/c(=C\c3cccc[n+]3C)n(Cc3ccccc3)c2=O)Sc2ccccc21	4 nM
CCn1c(=O)/c(=C2\Sc3ccccc3N2C)s/c1=C\c1cccc[n+]1CCCCC(=O)O	4 nM
CCn1c(=O)/c(=C2\Sc3ccccc3N2C)s/c1=C\c1cc[n+](C)c2ccccc12	4 nM
C=CCn1c(=O)/c(=C2\Sc3ccccc3N2C)s/c1=C\c1cc[n+](C)cc1	4 nM

Tested on: not listed separately
Assay: Selectivity index, ratio of EC50 for cytotoxicity against […] cells to EC50 for antiplasmodial activity against Plasmodium falciparum FCR-3 ATCC 30932 infected in human erythrocytes
Type: toxicity, cell-based
Conditions: mouse, read-out: Ratio EC50

Structure (SMILES)	selectivity ratio
CCn1c(=O)/c(=C2\Sc3ccccc3N2C)s/c1=C\c1cccc[n+]1C	> 100
CN1/C(=c2\s/c(=C\c3cc[n+](C)cc3)n(Cc3ccccc3)c2=O)Sc2ccccc21	> 100
CN1/C(=c2\s/c(=C\c3cccc[n+]3C)n(Cc3ccccc3)c2=O)Sc2ccccc21	> 100
CCn1c(=O)/c(=C2\Sc3ccccc3N2C)s/c1=C\c1cccc[n+]1CCCCC(=O)O	> 100
CCn1c(=O)/c(=C2\Sc3ccccc3N2C)s/c1=C\c1cc[n+](C)c2ccccc12	> 100
C=CCn1c(=O)/c(=C2\Sc3ccccc3N2C)s/c1=C\c1cc[n+](C)cc1	> 100

Reference: ChEMBL document CHEMBL4673175, “An epigrammatic status of the azole-based antimalarial drugs” (RSC Med Chem, 2020)
